Results as given in US5736523A, “Antineoplastic heteronapthoquinones” (Biochem Pharma Inc., priority 1995, dated 1998).
Counter-ions that a name gives are not always drawn.

Each molecule was assayed on SKVLB (Ovarian; multidrug resistant) (assay: In vitro cytotoxicity, microculture tetrazolium (MTT) assay, SKVLB). Conditions: ratio SKVLB / SKOV3.
Format: cell-based, human
Procedure: In Vitro Cytotoxicity--Microculture Tetrazolium Assay
The microculture tetrazolium assay was used to test in vitro cytotoxicity. This assay is described in Plumb, J. A. et al., 1989 Cancer Research 49, 4435-4440, which is herein incorporated by reference. The cytotoxicity of compounds towards tumor cells is measured in vitro using the assay. This assay method is based upon the ability of live, but not dead cells to reduce the yellow water soluble dye 3-(4;5-dimethylthiazol-2-yl)-2,5-diphenyltetrazolium bromide (MTT) to its water insoluble purple formazan product.
Human Tumor Cell lines, used were:
SKVLB (Ovarian; multidrug resistant)--Dr. V. Ling, Ontario
The cells were maintained in exponential growth in culture in minimal essential media (MEM) supplemented with non-essential amino acids, and containing 15% (v/v) fetal bovine serum, 5 mM L-glutamine, 1 mM sodium pyruvate, and 0.1 U/ml insulin. All cell lines were grown at 37° C. in an atmosphere of 5% CO2 in air.
Test compounds: 20 mM in DMSO and diluted to a final concentration of 200 μM in culture medium before use.
The following is the generic description of the assay method. It should be noted that although the conditions described work well with the cells listed above, the initial plating density and the MTT concentration used should be verified for each new cell line used to test compounds.
For each assay, doxorubicin is included as an inter-assay standard. This allows us to monitor the behaviour of the assay in general, and in particular, to check that the SKVLB line has maintained its resistant phenotype.
The plate layout is done in the following manner: The assays are carried out in 96-well (8 well×12 well) microtiter plates. Serial dilutions of the compound are tested along the length of the plate. A 1:3 serial dilution of compound in culture medium covers a concentration range from 100 μM to 1.7 nM. Each concentration of compound is tested in quadruplet, allowing two compounds to be tested per plate. Wells containing no cells (blank) and cells with no test compound (control) are included on each plate.
Cells are plated out in 100 μl of culture medium in the microtiter plates at a density of around 1,500-4,000 cells per well. The plates are incubated overnight to allow the cells to become adherent after which the test compound is added (100 μl of appropriate dilution per well). The cells are incubated with test compound at 37° C. for 48 h after which the compound is replaced with fresh medium. After a further 48 h incubation at 37° C., 50 μl of MTT solution (2 mg/ml) is added to each well. The plates are incubated in the dark for 4 h at 37° C. after which the medium is removed. The MTT formazan product is extracted from the cells by the addition of 200 μl DMSO followed by 50 μl of Sorensen's buffer. The plates are shaken briefly and the absorbance at 570 nm is read using a Molecular Devices UV max plate reader. Curves are fit to the MTT assay data using a four parameter logistic equation, and the data are normalized to fit a 0% to 100% survival scale.

First: CO[C@@H]1O[C@H](C(=O)Nc2ccccc2)CC2=C1C(=O)c1ccccc1C2=O (relative stereo) [BCH2042, (1,3-cis)-1-methoxy-3-N-anilinylcarbonyl-5,10-dioxo-3,4,5,10-tetrahydro-1H-naphtho-[2,3-c]-pyran]
Second: COC(=O)[C@@H](N)COC1OC(C(C)=O)CC2=C1C(=O)c1ccccc1C2=O (mixture of isomers) [BCH1654, (1S,2'S,3R) and (1R,2'S,3S)-methyl-(1-[O-serinemethyl ester]-5,10-dioxo-3,4,5,10-tetrahydronaphtaleno [2,3-C]pyran-3-yl) ketone hydrochloride]
The VLB/OV3 of the first is lower: 3.51 for the first, 5.25 for the second.

Compared with CC(=O)[C@@H]1CC2=C(C(=O)c3ccccc3C2=O)[C@@H](O[C@@H]2O[C@@H](C)[C@@H](O)[C@@H](O)[C@H]2I)O1 [BCH2015, (1'S,1R,3S)-methyl-(1-[2',6'-dideoxy-3',4'-dihydroxy-2'-iodo-L-lyxohexopyranose]-5,10-dioxo-3,4,5,10-tetrahydronaphtho [2,3-c]-pyran-3-yl) ketone], CC(=O)[C@H]1CC2=C(C(=O)c3ccccc3C2=O)[C@H](O[C@@H]2O[C@@H](C)[C@@H](O)[C@@H](O)[C@H]2I)O1 [BCH2014, (1'S,1S,3R)-methyl-(1-[2',6'-dideoxy-3',4'-dihydroxy-2'-iodo-L-lyxohexopyranose]-5,10-dioxo-3,4,5,10-tetrahydronaphtho [2,3-c]-pyran-3-yl)-ketone] is lower in VLB/OV3: 3.19 for the first, 1.85 for the second.

Compared with CC(=O)C1CC2=C(C(=O)c3ccccc3C2=O)C(O[C@H]2C[C@H](NC(=O)C(F)(F)F)[C@H](OS(C)(=O)=O)[C@H](C)O2)O1 (mixture of isomers) [BCH2095, (1'-S,1-S,3-R) and (1'-S,1-R,3-S)-methyl-(1-[2',3',4',6' tetradeoxy-3'-trifluoroacetamido-4'-O-methane-sulfonyl-L-lyxohexopyranose)-5,10-dioxo-3,4,5,10 tetrahydronaphtho-[2,3-c]pyran-3-yl) ketone], CC(C)[C@@H]1CC2=C(C(=O)c3ccccc3C2=O)[C@@H](O[C@H]2C[C@H](NC(=O)C(F)(F)F)[C@H](O)[C@H](C)O2)O1 [BCH2053, (1'S,1R,3S)-5,10-dioxo-3-isopropyl-1-(2',3',6'-trideoxy-3'-trifluoroacetamido-L-lyxohexopyranose)-3,4,5,10-tetrahydro-1H-naphtho-[2,3-c]-pyran] is lower in VLB/OV3: 8.16 for the first, 4.48 for the second.

Going from COC(=O)[C@H](CC(C)C)NC(=O)[C@@H](N)CO[C@H]1O[C@H](C(C)=O)CC2=C1C(=O)c1ccccc1C2=O [BCH2000, (1S,2'S,3S,5'S)-Methyl-(1-O-[Serine-Leucine-Me ester]-5,10-dioxo-3,4,5,10-tetrahydro-1-H-naphtho [2,3-c]pyran-3-yl) ketone hydrochloride] to CC(=O)O[C@H]1[C@@H](I)[C@H](O[C@@H]2O[C@@H](C(C)=O)CC3=C2C(=O)c2ccccc2C3=O)O[C@@H](C)[C@H]1OC(C)=O [BCH1667, (1'S,1S,3R)-methyl-(1-[2',6'-dideoxy-3',4'-diacetoxy-2'-iodo-L-lyxohexopyranose]-5,10-dioxo-3,4,5,10-tetrahydronaphtho [2,3-c]-pyran-3-yl) ketone], the VLB/OV3 falls from 69.89 to 7.32.

In the case of CC(=O)[C@H]1CC2=C(C(=O)c3ccc(O)cc3C2=O)[C@H](O[C@H]2C[C@H](NC(=O)C(F)(F)F)[C@H](O)[C@H](C)O2)O1 [BCH1180, (1'S,1S,3R)-Methyl (5,10-dioxo-1-(2',3',6'-trideoxy-3'-trifluoroacetamido-L-lyxohexopyranose)-7-hydroxy-3,4,5,10-tetrahydro [2,3-C]pyran-3-yl) ketone], the VLB/OV3 is reported as 10.20.

C[C@@H]1O[C@@H](O[C@H]2O[C@H](COc3ccccc3)CC3=C2C(=O)c2ccccc2C3=O)C[C@H](NC(=O)C(F)(F)F)[C@@H]1O [BCH2032, (1'S,1R,3S)-5,10-dioxo-3-phenyloxymethyl-1-(2',3',6'-trideoxy-3'-trifluoroacetamido-L-lyxohexopyranose)-3,4,5,10-tetrahydro-1H-naphtho-[2,3-c] pyran] was tested, and the VLB/OV3 was 2-2.93.
